Measured values as given in ChEMBL document CHEMBL2046380, “Synthesis and structure-activity relationship of disubstituted benzamides as a novel class of antimalarial agents” (Bioorg Med Chem Lett, 2012).

Experiments:
[1] = test system: HepG2; assay: Cytotoxicity against human HepG2 cells after 72 hrs by […] CellTiterGlo reagent assay; assay type: cell-based; conditions: HepG2, 72 h
[2] = test system: Plasmodium falciparum; assay: Antimalarial activity against […] incubated for 72 hrs by DNA staining based MARK1 growth inhibition assay; assay type: functional, organism-based
[3] = test system: Raji; assay: Cytotoxicity against human Raji cells after 72 hrs by […] CellTiterGlo reagent assay; assay type: cell-based
[4] = test system: Plasmodium falciparum; assay: Antimalarial activity against chloroquine-sensitive Plasmodium falciparum 3D7 incubated for 72 hrs by DNA staining based MAR3D7 growth inhibition assay; assay type: functional, organism-based; conditions: 3D7, 72 h
[5] = test system: HEK293; assay: Cytotoxicity against human HEK293 cells after 72 hrs by […] CellTiterGlo reagent assay; assay type: cell-based; conditions: HEK293, 72 h
[6] = test system: BJ; assay: Cytotoxicity against human BJ cells after 72 hrs by […] CellTiterGlo reagent assay; assay type: cell-based

SMILES | EC50 [1] [µM] | EC50 [2] [µM] | EC50 [3] [µM] | EC50 [4] [µM] | EC50 [5] [µM] | EC50 [6] [µM]
CC(C)N(Cc1cccc(OCCCCCC(=O)O)c1)C(=O)c1ccc(-c2cccc(F)c2)cc1 | > 26 | > 15 | > 26 | > 15 | > 26 | > 26
CCOC(=O)CCCCCOc1cccc(CN(C(=O)c2ccc(-c3cccc(Br)c3)cc2)C(C)C)c1 | > 26 | > 15 | > 26 | > 15 | > 26 | > 26
O=C(Nc1ccc2c(c1)OCO2)c1cc(-c2cccs2)nc2ccccc12 | > 26 | > 15 | > 26 | > 15 | > 26 | > 26
[N-]=[N+]=NC[C@H](O)c1ccc2c(c1)OCO2 | > 13 | > 7.51 | > 13 | > 7.51 | > 13 | > 13
CCOC(=O)CCCCCOc1cccc(CN(C(=O)c2ccc(-c3cccc(NC(C)=O)c3)cc2)C(C)C)c1 | > 26 | > 15 | > 26 | > 15 | > 26 | > 26
CC(C)N(Cc1cccc(OCCCCCC(=O)O)c1)C(=O)c1ccc(-c2ccoc2)cc1 | > 26 | > 15 | > 26 | > 15 | > 26 | > 26
CCOC(=O)CCCCCOc1cccc(CN(C(=O)c2ccc(-c3ccc4c(c3)OCO4)cc2)C(C)C)c1 | > 22.6 | > 12.5 | > 22.6 | > 12.5 | > 22.6 | > 22.6
CCOC(=O)CCCCCOc1cccc(CN(C(=O)c2ccccc2)C(C)C)c1 | > 26 | > 12.5 | > 26 | > 15 | > 26 | > 26
CCOC(=O)CCCCCOc1cccc(CN(C(=O)c2ccc(-c3cccc(Oc4ccccc4)c3)cc2)C(C)C)c1 | > 26 | > 10.9 | > 19.7 | > 10.9 | > 19.7 | > 19.7
CC(C)N(Cc1cccc(OCCCCCC(=O)O)c1)C(=O)c1ccc(-c2cccc(N(C)C)c2)cc1 | > 26 | > 15 | > 26 | > 15 | > 26 | > 26
CC(C)N(Cc1cccc(OCCCCCC(=O)O)c1)C(=O)c1ccc(-c2ccc3[nH]ccc3c2)cc1 | > 26 | > 15 | > 26 | > 15 | > 26 | > 26
CCOC(=O)CCCCCOc1cccc(CN(C(=O)c2ccc(-c3ccc4[nH]ccc4c3)cc2)C(C)C)c1 | > 26 | > 15 | > 26 | > 15 | > 26 | > 26
C=CCCC1=NCC(OC(C)=O)c2cc(OC)c(OC)cc21 (configuration not stated) | > 13 | > 7.51 | > 13 | > 7.51 | > 13 | > 13
CCOC(=O)CCCCCOc1cccc(CN(C(=O)c2ccc(-c3cccnc3)cc2)C(C)C)c1 | > 26 | > 15 | > 26 | > 15 | > 26 | > 26
CC(C)N(Cc1cccc(OCCCCCC(=O)O)c1)C(=O)c1ccc(-c2ccncc2)cc1 | > 26 | 0.52 | > 26 | 0.567 | > 26 | > 26
CC(=O)c1cccc(-c2ccc(C(=O)N(Cc3cccc(OCCCCCC(=O)O)c3)C(C)C)cc2)c1 | > 26 | > 15 | > 26 | < 0.0004 | > 26 | > 26
CCOC(=O)CCCCCOc1cccc(CN(C(=O)c2ccc(-c3cccc(CC#N)c3)cc2)C(C)C)c1 | > 26 | > 15 | > 26 | > 15 | > 26 | > 26
CCOC(=O)CCCCCOc1cccc(CN(C(=O)c2ccc(-c3cccc(CC(=O)O)c3)cc2)C(C)C)c1 | > 26 | > 15 | > 26 | > 15 | > 26 | > 26
CCOC(=O)CCCCCOc1cccc(CN(C(=O)c2ccc(-c3cc(C(F)(F)F)cc(C(F)(F)F)c3)cc2)C(C)C)c1 | > 26 | > 15 | > 26 | > 15 | > 26 | > 26
CCOC(=O)CCCCCOc1cccc(CN(C(=O)c2ccc(-c3cccc(F)c3)cc2)C(C)C)c1 | > 26 | > 15 | > 26 | > 15 | > 26 | > 26
CCOC(=O)CCCCCOc1cccc(CN(C(=O)c2ccc(-c3ccc4cc[nH]c4c3)cc2)C(C)C)c1 | > 26 | > 15 | > 26 | > 15 | > 26 | > 26
CCOC(=O)CCCCCOc1cccc(CNC(C)C)c1 | > 26 | > 15 | > 26 | > 15 | > 26 | > 26
